“And” between values parts separate entries of the source, which are not always exact repeats. Equal values may be shown once. Read-outs that look alike come from different tables or passages of the source.
How the values were obtained:
[1] = target: T1, 5-HT2B receptor (Homo sapiens, UniProt P41595); assay: cell-based; details: agonist activity, Ca2+ flux, CHO-K1 cells
T1 construct: host or cells: CHO-K1

[2] = target: T2, 5-HT2C receptor (Homo sapiens, UniProt P28335); assay: cell-based; details: agonist activity, Ca2+ flux, HEK293 cells
T2 construct: host or cells: HEK293
T2 sequence (P28335 33-458): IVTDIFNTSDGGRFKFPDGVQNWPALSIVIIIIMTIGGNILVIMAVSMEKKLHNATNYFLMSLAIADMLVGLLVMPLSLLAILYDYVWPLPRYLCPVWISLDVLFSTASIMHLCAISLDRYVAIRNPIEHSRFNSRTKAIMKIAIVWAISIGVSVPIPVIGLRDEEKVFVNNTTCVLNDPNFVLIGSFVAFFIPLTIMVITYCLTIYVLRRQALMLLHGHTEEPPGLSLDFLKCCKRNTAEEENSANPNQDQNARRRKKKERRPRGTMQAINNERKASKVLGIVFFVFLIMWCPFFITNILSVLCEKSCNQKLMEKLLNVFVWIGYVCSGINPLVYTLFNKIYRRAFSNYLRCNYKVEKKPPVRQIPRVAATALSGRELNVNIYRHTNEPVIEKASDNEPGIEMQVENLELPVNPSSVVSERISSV

[3] = In vivo pharmacokinetics, plasma and brain exposure after IP dosing; set-up: species or system male C57BL/6 mice; details: for B:P Ratio, Individual / Plasma Concentration, Individual / concentration at 0.5 h / concentration at 0.083 h / concentration at 4 h / Kp at 0.083 h / Kp at 0.5 h / Kp at 4 h: 10 mg/kg; for Kp at 0.083 h / Kp at 0.5 h / Kp at 4 h: brain/plasma; for Cmax / Tmax / AUC(0-inf) / half-life: mouse, male C57BL/6 mice; for AUC(0-inf): read-out: Plasma AUC0-inf; for half-life: read-out: Apparent T1/2 (converted)
Description: The systemic exposure of selected examples was studied in non-fasted male C57BL/6 mice weighing between 18.9-25.5 g. Mice had access to food and water ad libitum throughout the pre- and post-dose sampling period.
On the day of dosing, the formulation of each compound was prepared by dissolving solid compound in phosphate buffer saline (50 mM) using vortexing, creating colourless solutions (pH 6.4-6.5) for each compound.
Compounds were dosed to mice by IP injection (10 mL/kg dose volume via a 27G needle; n=9 mice per compound) and blood samples were collected at 5 and 30 min; 1, 2 and 4 h post-dose (n=3 mice per time point for each compound). A maximum of three blood samples were obtained from each mouse, with plasma samples being taken via submandibular bleed (approximately 120 μL). Once collected, blood samples were centrifuged immediately, supernatant plasma was removed, and stored at −80° C. until analysis by LCMS. In addition, at the 5 and 30 min and 4 h post-dose time points, the whole brain was rapidly removed from the carcass soon after the blood collection. The whole brains were blotted to remove excess blood, placed into pre-weighed polypropylene vials, and weighed. The brains were snap frozen in dry ice and subsequently stored frozen (−80° C.) until analysis.
Concentrations of test compound in plasma and tissue samples were determined using an LCMS/MS method validated for linearity, accuracy, precision, matrix factor and recovery (Table 2). Test compound standard solutions were diluted from a concentrated stock solution (32 mM in H2O) using 50% can in H2O (v/v) and a calibration curve was prepared in a matched matrix to the test samples.
Plasma: The plasma calibration curve was prepared by spiking aliquots of blank mouse plasma (25 μL) with test compound standard solutions (5 μL) and internal standard solution (5 μL of diazepam, 5 μg/mL in 50% acetonitrile in water). Test plasma samples (25 μL) were thawed, mixed, and then spiked with internal standard solution (5 μL). Plasma protein precipitation was performed by addition of acetonitrile (3-fold volume ratio) and thorough vortex mixing. Samples were centrifuged (RCF=9391×g) for 3 minutes and the supernatant (90 μL) was collected for analysis.
Tissue: Pre-weighed tissue samples (brain) were homogenised using a glass rod in buffer containing an EDTA/potassium fluoride solution (0.1 M/4 mg/mL) as a stabilisation cocktail to minimise the potential for ex vivo degradation (3 mL cocktail/g tissue). The tissue homogenate was briefly centrifuged (RCF=79×g) for 10 seconds to separate the foam layer before transferring an aliquot of the tissue homogenate (200 μL) to a fresh Eppendorf tube for sample extraction. Calibration standards were prepared by spiking blank brain homogenate (200 μL) with the solution standards (10 μL) and the internal standard (10 μL). Study samples were similarly prepared, except that acetonitrile (10 μL) was added instead of solution standards to maintain the same volume. Protein precipitation was carried out by the addition of a 3-fold volume of acetonitrile, followed by vortex mixing and centrifugation (RCF=9391×g) for 3 min to recover the supernatant for analysis.
Replicate analysis: Triplicate analytical replicate (ARs) samples were prepared similarly to the standards for each sample type at three concentrations (50, 500 and 2,000 ng/ml) and repeat injections of these ARs were included throughout the analytical run to assess assay performance. The extraction of the test compound from the standards and ARs were conducted as described above.

[4] = system: ARS-TST mouse model of depression; assay: Acute restraint stress tail suspension test (ARS-TST); assay type: in vivo; details: male ICR mice, intraperitoneal, tested 10 minutes after treatment
Description: Male ICR mice (23±3 g) were purchased from BioLASCO (Taipei, Taiwan) at 4-5 weeks of age and allowed 5-7 days to acclimate to the animal research facility at Pharmacology Discovery Services (Taipei, Taiwan). Mice were housed in groups of 10 in a large cage (47×25×15 cm) on a 12-hour light cycle (lights on: 0700) and provided ad libitum food and water except during acute restraint stress and tail-suspension testing. Temperature was maintained at 20-24° C., and all rooms (colony and testing rooms) had similar lighting intensity. All aspects of this work including housing, experimentation, and animal disposal were performed in accordance with the “Guide for the Care and Use of Laboratory Animals: Eighth Edition” (The National Academies Press, Washington, DC, 2011) in a facility accredited by the Association for Assessment and Accreditation of Laboratory Animal Care. […]
Tail Suspension Test (TST) Procedure: Mice were individually suspended on the edge of a shelf, 58 cm above a tabletop, using adhesive tape placed approximately 1 cm from the tip of the tail, for a total duration of 7 minutes. Using a stopwatch, the experimenters blinded to treatment groups recorded the duration of immobility (defined as hanging passively and motionless) during the 5 minutes spanning from 2-7 minutes. The data from 0-2 minutes was not recorded. […]

[5] = 0.083 h, IP 10 mg/kg, individual mouse
[6] = 0.083 h, IP 10 mg/kg, individual mouse, read-out: Brain Parenchyma Concentration, Individual
[7] = 0.5 h, IP 10 mg/kg, individual mouse
[8] = 0.5 h, IP 10 mg/kg, individual mouse, read-out: Brain Parenchyma Concentration, Individual
[9] = 4 h, IP 10 mg/kg, individual mouse
[10] = 4 h, IP 10 mg/kg, individual mouse, read-out: Brain Parenchyma Concentration, Individual
[11] = male, C57BL/6, mouse, brain, ip, 0.083 h, n = 3, read-out: Brain Parenchyma Concentration, Mean ± SD
[12] = male, C57BL/6, mouse, brain, ip, 0.5 h, individual mouse, read-out: Brain Parenchyma Concentration, Individual
[13] = male, C57BL/6, mouse, brain, ip, 0.5 h, n = 3, read-out: Brain Parenchyma Concentration, Mean ± SD
[14] = male, C57BL/6, mouse, brain, ip, 4 h, n = 3, read-out: Brain Parenchyma Concentration, Mean ± SD
[15] = male, C57BL/6, mouse, ip, 0.083 h, individual mouse, read-out: B:P Ratio, Individual
[16] = male, C57BL/6, mouse, ip, 0.083 h, n = 3, read-out: B:P Ratio, Mean ± SD
[17] = male, C57BL/6, mouse, ip, 0.5 h, individual mouse, read-out: B:P Ratio, Individual
[18] = male, C57BL/6, mouse, ip, 0.5 h, n = 3, read-out: B:P Ratio, Mean ± SD
[19] = male, C57BL/6, mouse, ip, 4 h, individual mouse, read-out: B:P Ratio, Individual
[20] = male, C57BL/6, mouse, ip, 4 h, n = 3, read-out: B:P Ratio, Mean ± SD
[21] = male, C57BL/6, mouse, plasma, ip, 0.083 h, individual mouse, read-out: Plasma Concentration, Individual
[22] = male, C57BL/6, mouse, plasma, ip, 0.083 h, n = 3, read-out: Plasma Concentration, Mean ± SD
[23] = male, C57BL/6, mouse, plasma, ip, 0.5 h, individual mouse, read-out: Plasma Concentration, Individual
[24] = male, C57BL/6, mouse, plasma, ip, 0.5 h, n = 3, read-out: Plasma Concentration, Mean ± SD
[25] = male, C57BL/6, mouse, plasma, ip, 4 h, n = 3, read-out: Plasma Concentration, Mean ± SD

T1 sequence (P41595 whole entry): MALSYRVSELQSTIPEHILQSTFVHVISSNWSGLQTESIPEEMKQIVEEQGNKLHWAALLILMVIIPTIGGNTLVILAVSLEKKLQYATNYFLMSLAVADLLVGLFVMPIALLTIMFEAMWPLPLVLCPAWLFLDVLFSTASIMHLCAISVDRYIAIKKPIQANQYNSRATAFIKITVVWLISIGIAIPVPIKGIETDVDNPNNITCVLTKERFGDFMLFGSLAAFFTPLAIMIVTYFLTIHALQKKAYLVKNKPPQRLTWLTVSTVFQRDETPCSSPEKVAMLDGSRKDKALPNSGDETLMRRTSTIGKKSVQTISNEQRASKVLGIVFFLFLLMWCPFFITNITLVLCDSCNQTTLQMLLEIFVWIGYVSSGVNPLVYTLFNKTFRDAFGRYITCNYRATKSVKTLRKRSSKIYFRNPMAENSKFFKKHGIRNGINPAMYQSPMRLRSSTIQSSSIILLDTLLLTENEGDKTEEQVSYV

## CCN(C)CCc1c[nH]c2ccc(OC)c(C)c12 [Example P-37, N-ethyl-2-(5-methoxy-4-methyl-1H-indol-3-yl)-N-methylethan-1-amine]
[1]
  Emax: 30.9%
[2]
  Emax: 53.1%
[3]; [5]
  B:P Ratio, Individual: 6.9 and 8.6
  Plasma Concentration, Individual: 2.21 µM and 2.12 µM
[3]; [6]
  concentration at 0.5 h: 31.6 µM and 15.2 µM and 18.1 µM
[3]; [7]
  B:P Ratio, Individual: 18 and 16
  Plasma Concentration, Individual: 1.15 µM and 1.48 µM
[3]; [8]
  concentration at 0.5 h: 20.6 µM and 24.3 µM
[3]; [9]
  B:P Ratio, Individual: 15
  Plasma Concentration, Individual: 0.0091 µM and 0.0104 µM
[3]; [10]
  concentration at 0.5 h: 0.134 µM and 0.152 µM
[3]; [11]
  concentration at 0.083 h: 21.6 ± 8.76 µM
[3]; [12]
  concentration at 0.5 h: 25.9 µM
[3]; [13]
  concentration at 0.5 h: 23.6 ± 2.74 µM
[3]; male, C57BL/6, mouse, brain, ip, 4 h, individual mouse, read-out: Brain Parenchyma Concentration, Individual
  concentration at 4 h: 0.102 µM
[3]; [14]
  concentration at 4 h: 0.129 ± 0.0255 µM
[3]; [15]
  Kp at 0.083 h: 9.4
[3]; [16]
  Kp at 0.083 h: 8.3 ± 1.3
[3]; [17]
  Kp at 0.5 h: 20
[3]; [18]
  Kp at 0.5 h: 18 ± 2
[3]; [19]
  Kp at 4 h: 13
[3]; [20]
  Kp at 4 h: 14 ± 1.2
[3]; [21]
  concentration at 0.083 h: 3.36 µM
[3]; [22]
  concentration at 0.083 h: 2.56 ± 0.0691 µM
[3]; [23]
  concentration at 0.5 h: 1.28 µM
[3]; [24]
  concentration at 0.5 h: 1.3 ± 0.162 µM
[3]; male, C57BL/6, mouse, plasma, ip, 4 h, individual mouse, read-out: Plasma Concentration, Individual
  concentration at 4 h: 0.0081 µM
[3]; [25]
  concentration at 4 h: 0.0092 ± 0.0012 µM
[3]; plasma, IP 10 mg/kg
  Cmax: 2.56 µM
  Tmax: 4.98 min
  AUC(0-inf): 1.72 µM·h
[3]; IP 10 mg/kg, plasma
  half-life: 30 min
[4]
  immobility time: decrease immobility time

## CCN(C)CCc1c[nH]c2c(C)cc(OC)cc12 [Example P-51, N-ethyl-2-(5-methoxy-7-methyl-1H-indol-3-yl)-N-methylethan-1-amine]
[1]
  Emax: 0.85%
[2]
  Emax: 57.3%
[3]; [5]
  B:P Ratio, Individual: 6.1 and 4.0
  Plasma Concentration, Individual: 5.38 µM and 7.55 µM
[3]; [6]
  concentration at 0.5 h: 33.0 µM and 30.4 µM
[3]; [7]
  B:P Ratio, Individual: 11 and 9.2
  Plasma Concentration, Individual: 4.49 µM and 3.79 µM
[3]; [8]
  concentration at 0.5 h: 49.3 µM and 35.0 µM
[3]; [9]
  B:P Ratio, Individual: 8.4 and 8.7
  Plasma Concentration, Individual: 0.0254 µM and 0.0505 µM and 0.111 µM
[3]; [10]
  concentration at 0.5 h: 0.230 µM and 0.424 µM and 0.958 µM
[3]; male, C57BL/6, mouse, brain, ip, 0.083 h, individual mouse, read-out: Brain Parenchyma Concentration, Individual
  concentration at 0.083 h: 28.6 µM
[3]; [11]
  concentration at 0.083 h: 30.7 ± 2.2 µM
[3]; [12]
  concentration at 0.5 h: 25.5 µM
[3]; [13]
  concentration at 0.5 h: 36.6 ± 12 µM
[3]; [14]
  concentration at 4 h: 0.538 ± 0.377 µM
[3]; [15]
  Kp at 0.083 h: 4.5
[3]; [16]
  Kp at 0.083 h: 4.9 ± 1.1
[3]; [17]
  Kp at 0.5 h: 7.4
[3]; [18]
  Kp at 0.5 h: 9.2 ± 1.8
[3]; [19]
  Kp at 4 h: 9.1
[3]; [20]
  Kp at 4 h: 8.7 ± 0.33
[3]; [21]
  concentration at 0.083 h: 6.37 µM
[3]; [22]
  concentration at 0.083 h: 6.43 ± 1.09 µM
[3]; [23]
  concentration at 0.5 h: 3.46 µM
[3]; [24]
  concentration at 0.5 h: 3.91 ± 0.529 µM
[3]; [25]
  concentration at 4 h: 0.0622 ± 0.0439 µM
[3]; plasma, IP 10 mg/kg
  Cmax: 6.43 µM
  Tmax: 4.98 min
  AUC(0-inf): 5.39 µM·h
[3]; IP 10 mg/kg, plasma
  half-life: 36 min
[4]
  immobility time: decrease immobility time

From patent US20250101038A1, “COMPOUNDS” (priority 2021, published 2025)
